Patent EP1220857B1, “GONADOTROPIN RELEASING HORMONE RECEPTOR ANTAGONISTS AND THEIR RELATED METHODS OF USE” (NEUROCRINE BIOSCIENCES, INC., priority 1999, dated 2001)

target: T1, GnRH receptor (Homo sapiens, UniProt P30968); assay: GnRH receptor membrane binding assay; conditions: displacement of [125I]-labeled GnRH peptide from membranes of cells transfected with GnRH receptor expression vectors; Ki by Cheng-Prusoff
T1 construct: expressed in transfected cells
T1 sequence (P30968 1-328): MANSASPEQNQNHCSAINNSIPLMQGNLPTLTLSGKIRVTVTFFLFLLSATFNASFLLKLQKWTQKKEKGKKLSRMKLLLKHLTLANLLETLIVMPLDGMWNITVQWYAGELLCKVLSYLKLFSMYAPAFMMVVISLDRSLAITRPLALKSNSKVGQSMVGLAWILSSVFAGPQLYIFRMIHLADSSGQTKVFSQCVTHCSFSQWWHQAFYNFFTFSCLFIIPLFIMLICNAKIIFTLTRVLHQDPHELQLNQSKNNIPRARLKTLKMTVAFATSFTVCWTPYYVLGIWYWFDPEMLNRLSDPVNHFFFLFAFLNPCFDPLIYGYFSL
Description: Activity of GnRH receptor antagonists are typically calculated from the IC50 as the concentration of a compound necessary to displace 50% of the radiolabeled ligand from the GnRH receptor, and is reported as a "Ki" value calculated by the following equation: Ki =(IC50)/(1 + L / KD) [formula] where L = radioligand and KD = affinity of radioligand for receptor (Cheng and Prusoff, Biochem. Pharmacol. 22:3099, 1973). GnRH receptor antagonists of this invention have a Ki of 100 µM or less. In a preferred embodiment of this invention, the GnRH receptor antagonists have a Ki of less than 10 µM, and more preferably less than 1µM. More preferred compounds include: 1-1, 1-2-5, 12, 13-15, 19, 21, 27, 31, 32, 34, 37, 55, 58, 64, 73, 2B, 2D, 3A, 3B, 3D, 4A, 4B, 4C, 4D, 4G, 4H, 5A and 5B (see Examples below).
The GnRH analog is labeled by the chloramine-T method. To 10 µg of peptide in 20 µl of 0.5M sodium phosphate buffer, pH 7.6, is added 1 mCi of Na125I, followed by 22.5 µg chloramine-T and the mixture vortexed for 20 sec. The reaction is stopped by the addition of 60 µg sodium metabisulfite and the free iodine is removed by passing the iodinated mixture through a C-8 Sep-Pak cartridge (Millipore Corp., Milford, MA). The peptide is eluted with a small volume of 80% acetonitrile/water. The recovered labeled peptide is further purified by reverse phase HPLC on a Vydac C-18 analytical column (The Separations Group, Hesperia, CA) on a Beckman 334 gradient HPLC system using a gradient of acetonitrile in 0.1% TFA. The purified radioactive peptide is stored in 0.1 % BSA/20% acetonitrile/0.1% TFA at -800C and can be used for up to 4 weeks.
Cells stably, or transiently, transfected with GnRH receptor expression vectors are harvested, resuspended in 5% sucrose and homogenized using a polytron homogenizer (2x 15 sec). Nuclei are removed by centrifugation (3000 x g for 5 min.), and the supernatant centrifuged (20,000 x g for 30 min, 4° C) to collect the membrane fraction. The final membrane preparation is resuspended in binding buffer (10mM Hepes (pH 7.5), 150 mM NaCl, and 0.1% BSA) and stored at -70°C. Binding reactions are performed in a Millipore MultiScreen 96-well filtration plate assembly with polyethylenimine coated GF/C membranes. The reaction is initiated by adding membranes (40 ug protein in 130 ul binding buffer) to 50ul of [^125I]-labeled GnRH peptide (~100,000 cpm), and 20ul of competitor at varying concentrations. The reaction is terminated after 90 minutes by application of vacuum and washing (2X) with phosphate buffered saline. Bound radioactivity is measured using 96-well scintillation counting (Packard Topcount) or by removing the filters from the plate and direct gamma counting. Ki values are calculated from competition binding data using non-linear least squares regression using the Prism software package (GraphPad Software).

Ki, < 1000 nM:
CN(CCc1ccccn1)Cc1c(C(C)(C)C)cc2n(Cc3ccccc3F)cc(C(=O)NCCCc3ccccc3)c(=O)n12 [Example 2D]
COc1cccc(-c2c(C)n(Cc3ccccc3F)c3nc(C(C)(C)C)c(CNCc4ccccn4)n3c2=O)c1 [Example 3D, 3-(N-(2-Pyridylmethyl))aminomethyl-2-(tert-butyl)-6-methyl-7-(2-fluorobenzyl)-5-(3-methoxyphenyl)imidazolo[1,2-a]pyrimid-4-one]
CCOC(=O)c1cn(Cc2ccccc2F)c2cc(C(C)(C)C)c(CN(C)CCc3ccccn3)n2c1=O [Example 2B]
COc1cccc(-c2c(C)n(Cc3ccccc3F)c3nc(C(C)(C)C)c(CNCCc4ccccn4)n3c2=O)c1 [Example 3B]
COc1cccc(-c2c(C)n(Cc3ccccc3F)c3nc(C(C)(C)C)c(CNCCc4ccccc4F)n3c2=O)c1 [Example 3A, 2-(tert-Butyl)-3-[N-(2-fluorophenyl)ethyl]aminomethyl-5-(3-methoxyphenyl)-6-methyl-7-(2-fluorobenzyl)imidazolo[1,2-a]pyrimid-4-one]
